{"source": "patent US20100150884A1", "about": "“Anticancer Agent to Be Combined with Telomelysin” (priority 2005, published 2010)", "key": {"[1]": {"tested_on": "various cancer cells cultured in vitro", "experiment": "XTT assay, combined effect of Telomelysin and anticancer agent, cell strains not named individually", "type": "cell-based, human", "description": "(§1) Telomelysin was infected to the following various cancer cells cultured in vitro at the concentrations of 0 (Mock), 0.1 or 1 MOI (multiplicity of infection). The cells used were as follows.\n(§2) Specifically, 1×10^3 cells from each of the above cell strains were plated in a 96-well plate. After 24 hours, cells were counted and the virus was added to the culture broth at a concentration of 0.1 MOI or 1 MOI.\n(§3) On the next day, docetaxel was added to the virus-infected cell culture broth at various concentrations (control, 0.1 nM, 1.0 nM, 10.0 nM and 100.0 nM).\n(§4) On day 5 of infection, XTT assay was performed using a kit (Roche Diagnostics). Briefly, the culture broth was removed from the plate. A reaction solution containing XTT reagent was prepared and added to the plate. Cells were cultured for about 4 hours. Then, absorbance was measured with a microtiter plate (ELISA) reader, and the number of viable cells was calculated to thereby confirm antitumor effect.\nXTT assays were performed in the same manner as described above using microtubule inhibitor vinorelbine and topoisomerase I inhibitor SN-38 (CPT-11 metabolite) as anticancer agents combined with Telomelysin."}, "H1299 cells": {"tested_on": "H1299 cells", "experiment": "XTT assay, combined effect of Telomelysin and anticancer agent", "type": "cell-based, human", "conditions": "low concentrations of docetaxel combined with Telomelysin 0.1 MOI; day 5 of infection", "description": "as §1, §2, §3, §4"}, "H226Br cells": {"tested_on": "H226Br cells", "experiment": "XTT assay, combined effect of Telomelysin and anticancer agent", "type": "cell-based, human", "description": "as §1, §2, §3, §4"}, "HepG2 cells": {"tested_on": "HepG2 cells", "experiment": "XTT assay, combined effect of Telomelysin and anticancer agent", "type": "cell-based, human", "conditions": "docetaxel combined with Telomelysin; day 5 of infection", "description": "as §1, §2, §3, §4"}, "LNCaP cells": {"tested_on": "LNCaP cells", "experiment": "XTT assay, combined effect of Telomelysin and anticancer agent", "type": "cell-based, human", "conditions": "docetaxel combined with Telomelysin; day 5 of infection", "description": "as §1, §2, §3, §4"}, "T.Tn cells": {"tested_on": "T.Tn cells", "experiment": "XTT assay, combined effect of Telomelysin and anticancer agent", "type": "cell-based, human", "description": "as §1, §2, §3, §4"}, "[2]": {"tested_on": "human lung cancer cell H1299 and human large bowel cancer cell SW620", "experiment": "Quantitative real-time PCR of E1A gene, proliferation/replication of Telomelysin", "type": "cell-based", "conditions": "Telomelysin 0.1 MOI in combination with docetaxel versus alone", "description": "How the proliferation of Telomelysin would be affected when an anticancer agent acting on microtubule is combined with Telomelysin was analyzed by quantitative real-time PCR.\nHuman lung cancer cell H1299 and human large bowel cancer cell SW620 were infected with Telomelysin at 0.1 MOI for 2 hours. Two hours thereafter, docetaxel was administered. At 12, 24, 36, 48 and 60 hours after the infection, cells were harvested. DNA contained in the cells and in the supernatant was extracted separately. Real-time PCR was performed using primers targeting the E1A gene carried by Telomelysin, to thereby analyze viral proliferation/replication quantitatively. Specifically, 2 μl of DNA extract was added to 18 μl of PCR solution. PCR was performed using E1A primers under the following conditions.\nComposition of the PCR solution: • 1×LC FastStart DNA Master SYBR Green I • 3 mM MgCl2 • 0.5 μM each primer Reaction conditions: • 95° C., 10 min • (95° C., 10 sec; 60° C., 15 sec; 72° C., 8 sec)×40 cycles • 70° C., 15 sec • 40° C., 30 sec"}, "tumor cells": {"tested_on": "tumor cells", "experiment": "Cell cycle analysis with PI (propidium iodide) using flow cytometry", "type": "cell-based", "conditions": "for sub G0/G1: after G2/M arrest; for cell cycle arrest: began 12 hours after administration", "from_the_text": "The influence of the substance having an antitumor effect and the recombinant virus used in combination in the pharmaceutical composition of the present invention upon the cell cycle of target cells may be examined, for example, by analyzing cell cycle with a nuclear dye PI (propidium iodide) using flow cytometry.\nAs a result of cell death, cell membranes become unable to retain their states and nuclei are readily stained with a nuclear dye such as PI mentioned above. Therefore, DNA content and cell cycle can be judged from the results of nuclear staining with PI. Here, it should be note that when ratios of S phase and G2/M phase in cell cycle are high in tumor cells, the malignancy is judged to be high.\nCell cycle was analyzed with PI (propidium iodide) using flow cytometry."}, "[3]": {"tested_on": "H1299 lung cancer cell tumor", "experiment": "In vivo antitumor effect, H1299 subcutaneous tumor, tumor size", "parameters": "species or system nude mice", "conditions": "combination: Telomelysin intratumoral 1×10^7 pfu and docetaxel 12.5 mg/kg intraperitoneal, three times", "description": "H1299 was inoculated subcutaneously at the back of 5-week old nude mice. One, three and five days after the tumor reached 5-10 mm in size, Telomelysin was administered intratumorally at a dose of 1×10^7 pfu/50 μl/mouse and docetaxel was administered at a dose of 12.5 mg/kg intraperitoneally both three times in the total. As a control, PBS was administered intratumorally and intraperitoneally. Tumor size was measured in every three days."}, "H1299 tumor tissue": {"tested_on": "H1299 tumor tissue", "experiment": "HE staining of tumor tissue after intratumoral administration", "type": "in vivo, nude mice", "conditions": "Telomelysin in combination with docetaxel; six days after the final administration", "description": "(§5) H1299 was inoculated subcutaneously at the back of 5-week old nude mice. When the tumor reached 5-10 mm in size, Telomelysin was administered intratumorally. Six days after the final administration, tumor tissue and liver were stained with HE as described below. Briefly, tissue sections were prepared, deparaffinized and washed with water. Then, distilled water was fed to the tissue section. Hematoxylin solution was added thereto and left stationary for 20 minutes. Then, the section was rinsed with water lightly. The resultant section was fractionated with 1% hydrochloric acid/70% alcohol, followed by color development. Then, the tissue section was washed with water for 10 minutes, passed through 80% ethanol, and dipped in eosin solution for 10 minutes. Subsequently, the tissue section was washed with water lightly, dehydrated, cleared and mounted to thereby perform HE staining."}, "liver": {"tested_on": "liver", "experiment": "HE staining of liver after intratumoral administration", "type": "in vivo, nude mice", "conditions": "Telomelysin in combination with docetaxel; six days after the final administration", "description": "as §5"}, "[4]": {"conditions": "docetaxel combined with Telomelysin, day 5 of infection"}, "[5]": {"conditions": "Telomelysin and docetaxel in combination"}}, "data": [{"smiles": "CCc1c2c(nc3ccc(O)cc13)-c1cc3c(c(=O)n1C2)COC(=O)[C@]3(O)CC", "note": "[SN-38]", "values": [{"measurement": "combined effect (antitumor effect, viable cells)", "setting": "[1]; SN-38 combined with Telomelysin, when the concentration of SN-38 was low", "result": "combined effect was observed"}, {"measurement": "sensitivity of cell strains to SN-38", "setting": "[1]; any of the cell strains tested", "result": "has sensitivity"}]}, {"smiles": "CC(=O)O[C@@]12CO[C@@H]1C[C@H](O)[C@@]1(C)C(=O)[C@H](O)C3=C(C)[C@@H](OC(=O)[C@H](O)[C@@H](NC(=O)OC(C)(C)C)c4ccccc4)C[C@@](O)([C@@H](OC(=O)c4ccccc4)[C@H]21)C3(C)C", "note": "[docetaxel]", "values": [{"measurement": "combined effect (antitumor effect, viable cells)", "setting": "H1299 cells", "result": "especially remarkable"}, {"measurement": "combined effect (antitumor effect, viable cells)", "setting": "H226Br cells; [4]", "result": "evident combined effect was not observed"}, {"measurement": "sensitivity of cell strain to docetaxel", "setting": "H226Br cells; docetaxel itself", "result": "sensitivity to docetaxel itself"}, {"measurement": "combined effect (antitumor effect, viable cells)", "setting": "HepG2 cells", "result": "evident combined effect was not observed"}, {"measurement": "combined effect (antitumor effect, viable cells)", "setting": "LNCaP cells", "result": "evident combined effect was not observed"}, {"measurement": "combined effect (antitumor effect, viable cells)", "setting": "T.Tn cells; [4]", "result": "evident combined effect was not observed"}, {"measurement": "sensitivity of cell strain to docetaxel", "setting": "T.Tn cells; docetaxel itself", "result": "sensitivity to docetaxel itself"}, {"measurement": "proliferation efficiency of Telomelysin diffused in supernatant (E1A DNA)", "setting": "[2]", "result": "equal proliferation efficiency"}, {"measurement": "apoptosis observed", "setting": "tumor cells; [5]", "result": "apoptosis (DNA fragmentation)"}, {"measurement": "sub G0/G1", "setting": "tumor cells; [5]", "result": "increased gradually"}, {"measurement": "cell cycle arrest", "setting": "tumor cells; [5]", "result": "G2/M arrest"}, {"measurement": "apoptosis observed", "setting": "tumor cells; docetaxel administered alone", "result": "apoptosis (DNA fragmentation)"}, {"measurement": "sub G0/G1", "setting": "tumor cells; docetaxel administered alone", "result": "increased gradually"}, {"measurement": "cell cycle arrest", "setting": "tumor cells; docetaxel administered alone", "result": "G2/M arrest"}, {"measurement": "antitumor effect (tumor size) compared to the control group and single use groups", "setting": "[3]", "result": "still more significant antitumor effect"}, {"measurement": "hyaline degeneration of tumor cells", "setting": "H1299 tumor tissue", "result": "observed in a wide range"}, {"measurement": "toxicity in liver tissue", "setting": "liver", "result": "Toxicity was not observed"}]}, {"smiles": "CCC1=C[C@@H]2CN(C1)Cc1c([nH]c3ccccc13)[C@@](C(=O)OC)(c1cc3c(cc1OC)N(C)[C@H]1[C@@](O)(C(=O)OC)[C@H](OC(C)=O)[C@]4(CC)C=CCN5CC[C@]31[C@@H]54)C2", "note": "[vinorelbine]", "values": [{"measurement": "combined effect (antitumor effect, viable cells)", "setting": "[1]; vinorelbine combined with Telomelysin", "result": "combined effect almost equal to that shown by docetaxel"}]}]}
